Data from US6858739B2, “Indole and benzimidazole 15-lipoxygenase inhibitors” (Warner-Lambert Company, priority 2000, dated 2005).
Where a name gives a salt, the structure may show the parent alone.

Legend:
human 15-LO = biological target: T1, human 15-LO (Homo sapiens, UniProt P16050); experiment: 15-LO inhibition, human enzyme; format: biochemical; conditions: linoleic acid as substrate; for inhibition at 10 µM: at 10 micromolar
T1 sequence (P16050 1-662): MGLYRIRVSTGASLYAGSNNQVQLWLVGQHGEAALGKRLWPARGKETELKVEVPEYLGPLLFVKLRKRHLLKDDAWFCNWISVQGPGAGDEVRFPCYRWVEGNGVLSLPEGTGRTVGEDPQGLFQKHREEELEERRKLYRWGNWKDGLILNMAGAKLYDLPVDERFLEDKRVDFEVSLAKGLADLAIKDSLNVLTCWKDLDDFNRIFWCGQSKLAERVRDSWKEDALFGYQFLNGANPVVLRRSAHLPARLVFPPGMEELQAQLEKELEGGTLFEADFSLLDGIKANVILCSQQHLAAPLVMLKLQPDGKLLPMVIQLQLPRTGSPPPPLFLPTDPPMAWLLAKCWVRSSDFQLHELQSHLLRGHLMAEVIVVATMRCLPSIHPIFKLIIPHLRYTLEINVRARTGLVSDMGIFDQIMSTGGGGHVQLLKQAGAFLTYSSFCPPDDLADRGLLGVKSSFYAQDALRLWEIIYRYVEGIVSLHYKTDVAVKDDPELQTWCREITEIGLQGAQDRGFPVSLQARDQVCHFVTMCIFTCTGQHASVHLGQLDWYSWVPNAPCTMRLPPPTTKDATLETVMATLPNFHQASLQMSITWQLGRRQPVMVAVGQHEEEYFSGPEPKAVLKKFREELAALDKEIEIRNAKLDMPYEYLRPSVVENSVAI
Protocol: The compounds described above are effective inhibitors of 15-LO when evaluated in standard assays routinely utilized to measure 15-LO activity. Specifically, representative compounds were evaluated by the methods described by Auerbach et al., Analytical Biochemistry, 1992;201:375-380. Two in vitro assays were utilized, one utilizing rabbit reticulocyte 15-LO, the other using human 15-LO. Both used linoleic acid as substrate, to enzymatically produce a peroxide oxidation product known as 13(S)-HPODE. N-Benzoyl leucomethylene blue was utilized as a colorimetric reagent for detection and quantification of the peroxide formation. Also, HPLC was utilized to quantify the oxidation following incubation at 4° C. for 10 minutes.
Data Column 1 gives the concentration of compound required to inhibit 50% of the activity of 15-LO (IC50) when measured by the HPLC method of Auerbach et al. using rabbit enzymes, and data Column 2 gives data from human 15-LO enzyme.

Row | Structure (SMILES) | melting point | IC50 (human 15-LO) | inhibition at 10 µM (human 15-LO)
1 | COc1ccc(-c2cc3cc(F)c(F)cc3[nH]2)cc1Nc1cccc(OCc2ccccc2)c1 (as salt: HCl) [Example 53, [5-(5,6-Difluoro-1H-indol-2-yl)-2-methoxy-phenyl]-(3-benzyloxy-phenyl)-amine] | 200 to 201 °C (dec.) | – | –
2 | COc1ccc(-c2cc3cc(F)c(F)cc3[nH]2)cc1NS(=O)(=O)c1cccc(N)c1 [Example 16, 3-Amino-N-[5-(5,6-difluoro-1H-indol-2-yl)-2-methoxy-phenyl]-benzenesulfonamide] | 235 to 238 °C | 0.02 µM | –
3 | COc1ccc(-c2cc3ccccc3[nH]2)cc1NC(=S)Nc1ccc(S(N)(=O)=O)cc1 [Example 17, 4-{3-[5-(1H-Indol-2-yl)-2-methoxy-phenyl]-thioureido}-benzenesulfonamide] | – | 0.187 µM | –
4 | CCCCCCCCCCCCS(=O)(=O)Nc1cc(-c2cc3cc(F)c(F)cc3[nH]2)ccc1OC [Example 20, Dodecane-1-sulfonic acid [5-(5,6-difluoro-1H-indol-2-yl)-methoxy-phenyl]-amide] | 148 to 149 °C | 0.013 µM | –
5 | CCCCCCCCCCCCS(=O)(=O)Nc1cc(-c2nc3cc(Cl)c(Cl)cc3[nH]2)ccc1OC [Example 21, Dodecane-1-sulfonic acid [5-(5,6-dichloro-1H-benzoimidazol-2-yl)-2-methoxy-phenyl]-amide] | 203 to 204 °C | – | 65%
6 | COc1ccc(-c2cc3cc(F)c(F)cc3[nH]2)cc1Nc1cccc(C(F)(F)F)c1 [Example 22, [5-(5,6-Difluoro-1H-indol-2-yl)-2-methoxy-phenyl]-(3-trifluoro-methylphenyl)-amine] | 144 to 146 °C | 0.048 µM | –
7 | CCOP(=O)(Cc1ccc(NC(=S)Nc2cc(-c3cc4ccccc4[nH]3)ccc2OC)cc1)OCC [Example 23, (4-{3-[5-(1H-Indol-2-yl)-2-methoxy-phenyl]-thioureido}-benzyl)-phosphonic acid diethyl ester] | – | 0.331 µM | –
8 | COc1ccc(-c2cc3cc(F)c(F)cc3[nH]2)cc1NC(=O)Nc1cc(Cl)cc(Cl)c1 [Example 25, 1-(3,5-Dichloro-phenyl)-3-[5-(5,6-difluoro-1H-indol-2-yl)-2-methoxy-phenyl]-urea] | 240 to 243 °C | 2.08 µM | –
9 | COc1ccc(-c2cc3ccccc3[nH]2)cc1NC(N)=S [Example 26, [5-(1H-Indol-2-yl)-2-methoxy-phenyl]-thiourea] | 188 to 191 °C | 0.258 µM | –
10 | COc1ccc(-c2cc3ccccc3[nH]2)cc1NC(=S)N[C@H](C)c1ccccc1 [Example 27, (R)-1-[5-(1H-Indol-2-yl)-2-methoxy-phenyl]-3(1-phenyl-ethyl)-thiourea] | 179 to 181 °C | 1.77 µM | –
11 | COc1ccc(-c2cc3cc(F)c(F)cc3[nH]2)cc1NS(=O)(=O)c1cccc(C#N)c1 [Example 28, 3Cyano-N-[5-(5,6-difluoro-1H-indol-2-yl)-2-methoxy-phenyl]-benzenesulfonamide] | 239 to 242 °C | 0.802 µM | –
12 | CNc1cc(-c2cc3ccccc3[nH]2)ccc1OC [Example 29, [5-(1H-Indol-2-yl)-2-methoxy-phenyl]-methyl-amine] | – | 0.47 µM | –
13 | COc1ccc(-c2cc3cc(F)c(F)cc3[nH]2)cc1NC(=S)Nc1cc(C(=O)O)cc(C(=O)O)c1 [Example 30, 5-{3-[5-(5,6-Difluoro-1H-indol-2-yl)-2-methoxy-phenyl]-thioureido}-isophthalic acid] | – | 1.82 µM | –
14 | COc1ccc(-c2cc3ccccc3[nH]2)cc1NC(=S)NCCNC(=O)OC(C)(C)C [Example 31, (2-{3-[5-(1H-Indol-2-yl)-2-methoxy-phenyl]-thioureido}-ethyl)-carbamic acid tert-butyl ester] | 159 to 160 °C | 0.141 µM | –
15 | COc1ccc(-c2cc3ccccc3[nH]2)cc1NC(=S)Nc1ccc(C(=O)O)cc1 [Example 32, 4-{3-[5-(1H-Indol-2-yl)-2-methoxy-phenyl]-thioureido}-benzoic acid] | 201 to 203 °C | 0.304 µM | –
16 | COc1ccc(-c2cc3ccccc3[nH]2)cc1NC(=S)Nc1cccc(CC(=O)O)c1 [Example 33, (3-{3-[5-(1H-Indol-2-yl)-2-methoxy-phenyl]-thioureido}-phenyl)-acetic acid] | 174 to 175 °C | 0.74 µM | –
17 | COc1ccc(-c2cc3ccccc3[nH]2)cc1NC(=S)Nc1ccc(CC(=O)O)cc1 [Example 34, (4-{3-[5-(1H-Indol-2-yl)-2-methoxy-phenyl]-thioureido}-phenyl)-acetic acid] | 190 to 192 °C | 1.44 µM | –
18 | COc1ccc(-c2cc3cc(F)c(F)cc3[nH]2)cc1NC(=S)N[C@@H](C)c1ccccc1 [Example 35, 1-[5-(5,6-Difluoro-1H-indol-2-yl)-2-methoxy-phenyl]-3-((S)-1-phenyl-ethyl)-thiourea] | 102 to 106 °C | 0.538 µM | –
19 | COc1ccc(-c2cc3cc(F)c(F)cc3[nH]2)cc1NC(=S)N[C@@H](COC(C)(C)C)C(=O)OC(C)(C)C [Example 36, (S)-3-tert-Butoxy-2-{3-[5-(5,6-Difluoro-1H-indol-2-yl)-2-methoxy-phenyl]-thioureido}-propionic acid tert-butyl ester] | 111 to 114 °C | – | 51%
20 | COc1ccc(-c2cc3cc(F)c(F)cc3[nH]2)cc1NC(=S)N[C@@H](CO)[C@@H](O)c1ccccc1 [Example 40, 1-[5-(5,6-Difluoro-1H-indol-2-yl)-2-methoxy-phenyl]-3-((1S,2S)-2-hydroxy-1-hydroxymethyl-2-phenyl-ethyl)-thiourea] | – | 0.62 µM | –
21 | COc1ccc(-c2cc3ccccc3[nH]2)cc1NCc1cccc([N+](=O)[O-])c1 [Example 42, [5-(1H-indol-2-yl)-2-methoxy-phenyl]-(3-nitro-benzyl)-amine] | 160 to 162 °C | 0.87 µM | –
22 | COc1ccc(-c2cc3ccccc3[nH]2)cc1NCc1ccc([N+](=O)[O-])cc1 [Example 43, [5-(1H-Indol-2-yl)-2-methoxy-phenyl]-(4-nitro-benzyl)-amine] | 198 to 199 °C | 0.92 µM | –
23 | COc1ccc(-c2cc3ccccc3[nH]2)cc1NCc1ccc([N+](=O)[O-])c(O)c1 [Example 44, [5-(1H-Indol-2-yl)-2-methoxy-phenyl]-(3-hydroxy-4-nitro-benzyl)-amine] | 134 to 135 °C | 0.236 µM | –
24 | COc1ccc(-c2cc3ccccc3[nH]2)cc1NCc1ccc(O)c([N+](=O)[O-])c1 [Example 45, [5-(1H-Indol-2-yl)-2-methoxy-phenyl]-(4-hydroxy-3-nitro-benzyl)-amine] | 165 to 166 °C | 0.42 µM | –
25 | COc1ccc(-c2cc3cc(F)c(F)cc3[nH]2)cc1NCc1cccc([N+](=O)[O-])c1 [Example 46, [5-(5,6-Difluoro-1H-indol-2-yl)-2-methoxy-phenyl]-(3-nitro-benzyl)-amine] | 212 to 214 °C | 3.03 µM | –
26 | COc1ccc(-c2cc3cc(F)c(F)cc3[nH]2)cc1NCc1ccc([N+](=O)[O-])cc1 [Example 47, [5-(5,6-Difluoro-1H-indol-2-yl)-2-methoxy-phenyl]-(4nitro-benzyl)-amine] | 181 to 182 °C | 0.534 µM | –
27 | COc1ccc(-c2cc3cc(F)c(F)cc3[nH]2)cc1NCc1ccc([N+](=O)[O-])c(O)c1 [Example 48, [5-(5,6-Difluoro-1H-indol-2-yl)-2-methoxy-phenyl]-(3-hydroxy-4-nitro-benzyl)-amine] | 170 to 171 °C | – | 98%
28 | COc1ccc(-c2cc3cc(F)c(F)cc3[nH]2)cc1NCc1ccc(O)c([N+](=O)[O-])c1 [Example 49, [5-(5,6-Difluoro-1H-indol-2-yl)-2-methoxy-phenyl](4-hydroxy-3-nitro-benzyl)-amine] | 195 to 196 °C | – | 99%
29 | COc1ccc(-c2cc3cc(F)c(F)cc3[nH]2)cc1NCc1cccc(C#N)c1 [Example 51, [5-(5,6-Difluoro-1H-indol-2yl)-2-methoxy-phenyl]-(3-cyano-benzyl)-amine] | 154 to 155 °C | 0.432 µM | –
30 | COC(=O)c1ccc(Nc2cc(-c3cc4cc(F)c(F)cc4[nH]3)ccc2OC)cc1 [Example 52, 4-[5-(5,6-Difluoro-1H-indol-2-yl)-2-methoxy-phenylamino]-benzoic acid methyl ester] | 166 to 170 °C | 0.031 µM | –
